Legend:
[1] = target: T1, orphan receptor Singlet_413 (Homo sapiens, UniProt Q8TDS5); experiment: Ligand fishing: transient Ca2+ signal (Flipr384, Fluo-4) in CHO-K1-CRE cells stably transfected with Singlet_413; assay type: cell-based; conditions: not primed
T1 construct: expressed in transfected cells
Protocol: (§1) Twenty-four hours before the experiment, the cells are havested, counted and seeded in 384-well plates at 10000 cells per wells and put at 37° C./5% CO2. The day of the experiment, the injection plates containing the compounds are prepared as described in the following table:
(§2) The cells are loaded with 2 μM Fluo-4 in HBSS/Hepes buffer. After one hour incubation at 37° C./5% CO2, the cells are washed with HBSS/Hepes containing 2.5 mM probenecid (2 wash cycles+volume adjustment are performed). Plates that will be primed with ATP are adjusted to 20 μl final volume and plates that will directly receive the compounds are adjusted to 40 μl final volume. Four assay plates are primed with 20 μl ATP at 20 μM initial (10 μM final concentration) and are incubated at room temperature for 30 minutes. Compounds plates at 3 times the final concentration are then injected with the Flipr pipettor on both primed and not primed plates. The Flipr laser is setup on 0.6 watt, the exposure length at 0.4 sec. […] A 10 seconds baseline is recorded prior compounds injection. After the injection, the signal is recorded every second for one minute. Then, signal decay is measured for 20 additional seconds. Two statistics are exported: Fbasal and Fmax. For each well, a dF/F value is expressed with the following formula: (Fmax−Fbasal)/Fbasal is the basal fluorescence prior compound injection and Fmax is the peak value of the kinetic.

Contig 88:1 = experiment: Selectivity check: Ca2+ signal (Flipr) in CHO-CRE cells transfected with Contig 88:1; assay type: cell-based, human; conditions: not primed
Protocol: as §1, §2
(§3) These compounds are also tested against wild type cells and other transfected cells in order to check the selectivity.

CHO-K1 (CHO-CRE) cells = experiment: Selectivity check: Ca2+ signal (Flipr) in CHO-CRE CHO-K1 cells without receptor; assay type: cell-based; conditions: not primed
Protocol: as §1, §2, §3

CHO-K1-ATCC cells = experiment: Selectivity check: Ca2+ signal (Flipr) in wild type CHO-K1-ATCC cells; assay type: cell-based; conditions: for dF/F (Fmax−Fbasal)/Fbasal, CHO-K1-ATCC, np: not primed
Protocol: as §1, §2, §3

T1 sequence (Q8TDS5 whole entry): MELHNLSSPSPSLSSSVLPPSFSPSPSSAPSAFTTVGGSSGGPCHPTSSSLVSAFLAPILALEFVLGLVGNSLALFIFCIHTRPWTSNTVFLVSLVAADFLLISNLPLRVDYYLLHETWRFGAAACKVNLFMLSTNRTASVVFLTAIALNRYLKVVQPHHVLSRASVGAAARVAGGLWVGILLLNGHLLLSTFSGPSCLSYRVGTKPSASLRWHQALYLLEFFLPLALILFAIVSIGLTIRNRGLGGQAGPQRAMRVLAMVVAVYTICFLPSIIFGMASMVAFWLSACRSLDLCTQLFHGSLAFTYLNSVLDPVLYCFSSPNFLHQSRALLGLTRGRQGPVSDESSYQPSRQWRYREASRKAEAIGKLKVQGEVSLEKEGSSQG

Structure (SMILES) | dF/F (Fmax−Fbasal)/Fbasal, CHO-CRE Singlet_413, np [1] | dF/F (Fmax−Fbasal)/Fbasal, CHO-CRE Contig 88:1, np (Contig 88:1) | dF/F (Fmax−Fbasal)/Fbasal, CHO-CRE CHO-K1, np (CHO-K1 (CHO-CRE) cells) | dF/F (Fmax−Fbasal)/Fbasal, CHO-K1-ATCC, np (CHO-K1-ATCC cells) | activity (Ca2+ signal) on the non-transfected cells (CHO-K1-ATCC cells; non-transfected cells)
CCCCC/C=C\C/C=C\C/C=C\C=C\[C@@H](O)CCCC(=O)O (racemic) [Cpd 2, (±)5-HETE] | 0.01 | 0.01 | −0.05 | 0.02 | –
CCCCCCCC/C=C\C/C=C\C=C\C(O)CCCC(=O)O (racemic) [Cpd 4, (±)5-HETrE] | 0.03 | 0.01 | −0.01 | 0.01 | –
CC/C=C\C/C=C\C/C=C\C/C=C\C=C\C(O)CCCC(=O)O (racemic) [Cpd 5, (±)5-HEPE] | 0.03 | 0.01 | −0.04 | 0.03 | –
CCCCC/C=C\C[C@@H](O)/C=C/C=C/C=C/[C@@H](O)CCCC(=O)O (relative stereo) [Cpd 8, 5(S), 12(R)-DIHETE all trans] | 0.01 | 0.01 | −0.04 | 0.02 | –
CCCCC/C=C\C/C=C\C/C=C\C=C\[C@@H](O)CCCC(=O)O [Cpd 1, 5(S)-HETE] | 0.01 | 0.00 | −0.02 | 0.02 | –
CCCCC/C=C\C=C\[C@@H](O)C/C=C\C/C=C\CCCC(=O)O [Cpd 3, 11(S)-HETE] | 0.00 | 0.00 | −0.03 | −0.04 | –
CCCCC/C=C\C/C=C\C/C=C\C=C\[C@H](CCCC(=O)O)OO [Cpd 6, 5(S)-HPETE] | 0.01 | 0.00 | −0.01 | 0.03 | –
CCCCC/C=C\C[C@@H]1O[C@H]1C(O)/C=C\C/C=C\CCCC(=O)O (stereo partly shown) [Cpd 7, HEPOXILIN B3] | 0.02 | 0.00 | −0.01 | 0.01 | –
CCCCC/C=C\CC1OC1C/C=C\C/C=C\CCCC(=O)O (stereo not shown) [Cpd 9, 11,12-EPOXYEICOSATRIENOIC ACID] | 0.02 | 0.02 | −0.02 | 0.00 | –
CCCCC/C=C\C/C=C\C/C=C\C=C\C(=O)CCCC(=O)O [Cpd 10, 5-KETOEICOSATETRAENOIC ACID] | 0.01 | 0.00 | −0.05 | 0.04 | not active
CCCCC/C=C\C/C=C\C/C=C\C/C=C\CCCC(=O)OC(CO)COC(=O)CCCCCCCCCCCCCCCCC (stereo not shown) [Cpd 11, 1-STEAROYL-2-ARACHIDONOYL-GLYCEROL] | −0.01 | −0.01 | −0.05 | 0.01 | –
CC/C=C\C/C=C\C/C=C\C/C=C\C/C=C\CCCC(=O)O [Cpd 12, EICOSAPENTAENOIC ACID (20:5 n-3)] | 0.05 | 0.03 | −0.04 | 0.02 | –
CCCCC/C=C\C/C=C\C/C=C\C/C=C\CCCC(=O)O [Cpd 13, ARACHIDONIC ACID (20:4 n-6)] | 0.03 | 0.02 | −0.05 | 0.01 | –
CCCCC/C=C\C/C=C\C/C=C\C/C=C\CCCC(=O)OC(CO)CO [Cpd 14, 2-ARACHIDONOYLGLYCEROL] | 0.02 | 0.00 | −0.05 | 0.00 | –
OCCN(CCO)c1nc(N2CCCCC2)c2nc(N(CCO)CCO)nc(N3CCCCC3)c2n1 [Cpd 15, Dipyridamole] | 0.11 | 0.39 | −0.04 | 0.38 | –

— patent US20040175789A1, “G protein coupled receptors and dna sequences thereof” (priority 2003, published 2004)
